Test results published in patent US5221664A, “Composition and treatment with biologically active peptides and toxic cations” (Magainin Pharmaaceuticals Inc., priority 1991, dated 1993).
“And” between values parts separate entries of the source, which are not always exact repeats. Identical values can stand only once. Like-named read-outs stand apart in the source and are kept apart here. Ends that are not written are not given here.

Key:
[1] = system: clinical isolate of a methicillin resistant S. aureus (MSRA); format: cell-based; settings: agent alone
Procedure: Approximately 1-5×10^5 CFUs of a clinical isolate of a methicillin resistant S. aureus (MSRA), dispersed in 100 μl of TSB were added to each test well. […] The MIC of each peptide alone, and of silver nitrate alone was determined. The MIC of each peptide when 5 μg/ml and/or 10 μg/ml of silver nitrate was added was determined as well.

[2] = system: P. aeruginosa strain 107 which was gentamicin resistant; assay: Minimum Inhibitory Concentration (MIC) in TSB, test wells; format: cell-based; settings: for MIC: agent alone, gentamicin resistant P. aeruginosa strain 107; for MIC of the peptide: P. aeruginosa strain 107
Procedure: Approximately 1-5×10^5 CFUs of P. aeruginosa strain 107 which was gentamicin resistant, dispersed in 100 μl of TSB were added to each test well. […] The following combinations of Magainin II, with or without silver nitrate, were tested for Minimum Inhibitory Concentration (MIC) of Magainin II: […]

[3] = system: P. aeruginosa strain 27853
Procedure: Approximately 1-5×10^5 colony forming units (CFUs) of P. aeruginosa strain 27853, dispersed in 100 μl of Trypticase soy broth (TSB), were added to each test well. […] B13-33 peptide is of the following structure:
The following peptide combinations were tested for Minimal Inhibitory Concentration (MIC) of the B13-33 peptide:
The following combinations were tested for the MIC of silver nitrate:
Approximately 1-5×10^5 CFUs of P. aeruginosa strain 27853 dispersed in 100 μl of TSB were added to each test well. […]

[4] = agent alone, P. aeruginosa strain 27853
[5] = plus 3 μg/ml silver nitrate, P. aeruginosa strain 27853

`O=[N+]([O-])[O-].[Ag+]` [Silver nitrate, silver nitrate, reference compound] was tested, and the MIC [1] was 16 µg/mL, the MIC [2] was 8 µg/mL and the MIC [3, 4] was 4 to 8 µg/mL and 8 µg/mL. The MIC ([3]; agent alone, P. aeruginosa strain 27853, listed as silver nitrate) was 2 to 8 µg/mL, the “MIC of silver nitrate” value ([3]; plus 1.6 μg/ml B13-33 peptide, P. aeruginosa strain 27853) was 2 to 8 µg/mL and the “MIC of silver nitrate” value ([3]; plus 5 μg/ml B13-33 peptide, P. aeruginosa strain 27853) was under 0.25 µg/mL. For the same compound, the “MIC of silver nitrate” value ([3]; plus 5 μg/ml B13-33 peptide, P. aeruginosa strain 27853, listed as silver nitrate) was “less than 0.25 μg/ml”.

“GIGKFLHSAKKFGKAFVGEIMNS-NH2 [Magainin II]” was tested, and the MIC [2] was 256 µg/mL, the “MIC of the peptide” value ([2]; plus 1 μg/ml silver nitrate) was 32 µg/mL and the “MIC of the peptide” value ([2]; plus 2 μg/ml silver nitrate) was 16 µg/mL. For the same compound, the “MIC of the peptide” value ([2]; plus 3 μg/ml silver nitrate) was 16 µg/mL, the “MIC of the peptide” value ([2]; plus 4 μg/ml silver nitrate) was 4 µg/mL and the “MIC of the peptide” value ([2]; plus 5 μg/ml silver nitrate) was under 0.03 µg/mL. For the same compound, the “MIC of the peptide” value ([3]; plus 1 μg/ml silver nitrate, P. aeruginosa strain 27853) was 32 µg/mL, the “MIC of the peptide” value ([3]; plus 2 μg/ml silver nitrate, P. aeruginosa strain 27853) was 16 µg/mL and the “MIC of the peptide” value [3, 5] was 8 µg/mL. The “MIC of the peptide” value ([3]; plus 4 μg/ml silver nitrate, P. aeruginosa strain 27853) was under 0.03 µg/mL.

With GIGKFLKKAKKFGKAFVKIMKK [B13-33 peptide] the MIC ([3]; strain 27853) was 4 to 16 µg/mL.

“KWKLFKKIEKVGQRVRDAVISAGPAVATVAQATALAK [Cecropin A-D]” was tested, and the MIC [3, 4] was 16 µg/mL and the “MIC of the peptide” value [3, 5] was under 0.25 µg/mL.
